Source: ChEMBL document CHEMBL1126639, “Centrally acting serotonergic and dopaminergic agents. 2. Synthesis and structure-activity relationships of 2,3,3a,4,9,9a-hexahydro-1H-benz[f]indole derivatives” (J Med Chem, 1993)

Assays:
[1] = target: D(2) dopamine receptor (Homo sapiens, UniProt P14416); assay: Binding affinity against [3H]U-86,170-labeled dopamine receptor D2 in cloned CHO cells; type: cell-based
[2] = target: D(2) dopamine receptor (Rattus norvegicus, UniProt P61169); assay: Binding affinity for [3H]raclopride-labeled dopamine receptor D2 in rat striatum; type: tissue-based
[3] = test system: Mus musculus; assay: Effective dose on hypothermia in mouse when administered subcutaneously; type: functional; conditions: sc
[4] = test system: Mus musculus; assay: Effective dose on hypothermia in mouse when administered through peroral route; type: functional; conditions: Mus musculus, po; read-out: ED50
[5] = test system: Mus musculus; assay: Time of effect in the isolation-induced aggression behavioral assay in the mouse when a dose of 0.0 micro mol/kg is administered intraperitoneally; type: functional
[6] = test system: Mus musculus; assay: Time of effect in the isolation-induced aggression behavioral assay in the mouse when a dose of 1.1 micro mol/kg is administered intraperitoneally; type: functional
[7] = test system: Mus musculus; assay: Time of effect in the isolation-induced aggression behavioral assay in the mouse when a dose of 11 micro mol/kg is administered intraperitoneally (*,p<0.05); type: functional
[8] = test system: Mus musculus; assay: Maximum decrease in temperature when compound is administered subcutaneously; type: functional
[9] = test system: Mus musculus; assay: Maximum decrease in temperature when compound is administered through peroral route; type: functional
[10] = test system: Mus musculus; assay: Time of effect in the isolation-induced aggression behavioral assay in the mouse when a dose of 3.5 micro mol/kg is administered intraperitoneally (*,p<0.05); type: functional
[11] = test system: Mus musculus; assay: Time of effect in the isolation-induced aggression behavioral assay in the mouse when a dose of 36 micro mol/kg is administered intraperitoneally (*,p<0.05); type: functional
[12] = test system: Mus musculus; assay: Time of effect in the isolation-induced aggression behavioral assay in the mouse when a dose of 0.4 micro mol/kg is administered intraperitoneally; type: functional
[13] = test system: Rattus norvegicus; assay: Effect on the synthesis rates of dopamine (DOPA accumulation) in the rat ventral limbic brain region at 3.5 umol/kg; type: functional, Limbic system
[14] = test system: Rattus norvegicus; assay: Effect on the synthesis rates of serotonin (5-HTP accumulation) in the rat ventral limbic brain region 3.5 umol/kg; type: functional, Limbic system
[15] = test system: Rattus norvegicus; assay: Inhibition of firing rates of dopaminergic neurons in the substantia nigra pars compacta by intravenous injection in rats; type: functional
[16] = test system: Rattus norvegicus; assay: Inhibition of firing rates of serotonergic neurons in the dorsal raphe nucleus by intravenous injection in rats; type: functional; conditions: Rattus norvegicus, Dorsal raphe nucleus, iv; read-out: ED50
[17] = test system: Mus musculus; assay: Ability to stimulate dopaminergic systems by effect on locomotor activity in reserpinized mice when a dose of 3.5 micro mol/kg is administered intraperitoneally (*,p<0.05); type: functional
[18] = test system: Mus musculus; assay: Ability to stimulate dopaminergic systems by effect on locomotor activity in reserpinized mice when a dose of 35 micro mol/kg is administered intraperitoneally (*,p<0.05); type: functional
[19] = test system: Mus musculus; assay: Ability to stimulate dopaminergic systems by effect on locomotor activity in reserpinized mice when a dose of 0.4 micro mol/kg is administered intraperitoneally; type: functional
[20] = test system: Mus musculus; assay: Antagonism of apomorphine in reserpinized mice when a dose of 0.4 micro mol/kg is administered intraperitoneally; type: functional
[21] = test system: Mus musculus; assay: Antagonism of apomorphine in reserpinized mice when a dose of 3.5 micro mol/kg is administered intraperitoneally; type: functional
[22] = test system: Mus musculus; assay: Antagonism of apomorphine in reserpinized mice when a dose of 35 micro mol/kg is administered intraperitoneally; type: functional
[23] = target: Sodium-dependent dopamine transporter (Rattus norvegicus) (UniProt P23977); assay: Inhibition of firing rates of dopaminergic neurons in the substantia nigra pars compacta by intravenous injection in rats.; type: functional, tissue-based
[24] = target: Sodium-dependent dopamine transporter (Rattus norvegicus) (UniProt P23977); assay: Inhibition of firing rates of serotonergic neurons in the dorsal raphe nucleus by intravenous injection in rats.; type: functional, tissue-based
[25] = species: Mus musculus; assay: Time of effect in the face-to-face behavioral assay in the mouse […]; type: functional
[26] = test system: Mus musculus; assay: Time of effect in the face-to-face behavioral assay in the mouse when a dose of 0.3 micro mol/kg is administered subcutaneously; type: functional
[27] = test system: Mus musculus; assay: Time of effect in the face-to-face behavioral assay in the mouse when a dose of 3.0 micro mol/kg is administered subcutaneously; type: functional
[28] = test system: Mus musculus; assay: Time of effect in the face-to-face behavioral assay in the mouse when a dose of 30 micro mol/kg is administered subcutaneously; type: functional
[29] = test system: Mus musculus; assay: Time of effect in the isolation-induced aggression behavioral assay in the mouse when a dose of 0.9 micro mol/kg is administered intraperitoneally; type: functional
[30] = test system: Mus musculus; assay: Time of effect in the isolation-induced aggression behavioral assay in the mouse when a dose of 3.0 micro mol/kg is administered intraperitoneally; type: functional
[31] = test system: Mus musculus; assay: Time of effect in the isolation-induced aggression behavioral assay in the mouse when a dose of 30 micro mol/kg is administered intraperitoneally; type: functional
[32] = test system: Mus musculus; assay: Time of effect in the isolation-induced aggression behavioral assay in the mouse when a dose of 0.3 micro mol/kg is administered intraperitoneally; type: functional
[33] = test system: Mus musculus; assay: Time of effect in the isolation-induced aggression behavioral assay in the mouse when a dose of 9.1 micro mol/kg is administered intraperitoneally; type: functional
[34] = test system: Rattus norvegicus; assay: Effect on the synthesis rates of dopamine in the rat ventral limbic brain region at 0.3 micro mol/kg.; type: functional, Limbic system
[35] = test system: Rattus norvegicus; assay: Effect on the synthesis rates of serotonin in the rat ventral limbic brain region 0.3 micro mol/kg.; type: functional, Limbic system
[36] = test system: Rattus norvegicus; assay: Effect on the synthesis rates of serotonin in the rat ventral limbic brain region 3.0 micro mol/kg.; type: functional, Limbic system
[37] = test system: Rattus norvegicus; assay: Effect on the synthesis rates of dopamine in the rat ventral limbic brain region at 3.0 micro mol/kg; type: functional, Limbic system
[38] = species: Felis catus; assay: Percent of arterial blood pressure at sympathetic nerve activity (SND) dose value was determined; type: functional
[39] = test system: Felis catus; assay: Maximum decrease of arterial blood pressure at sympathetic nerve activity (SND) in anesthetized cat has been observed following 1 mg/kg dose; type: functional; set-up: scale not given: the % may be the effect or the level left
[40] = test system: Felis catus; assay: Maximum decrease of sympathetic nerve activity (SND) in anesthetized cat has been expressed as percent control; type: functional; set-up: scale not given: the % may be the effect or the level left
[41] = test system: Felis catus; assay: Effective dose at which the sympathetic nerve activity (SND) has been reduced to 50% of the pretreatment value in anesthetized cat; type: functional
[42] = test system: Mus musculus; assay: Time of effect in the face-to-face behavioral assay in the mouse when a dose of 2.8 micro mol/kg is administered subcutaneously; type: functional
[43] = test system: Mus musculus; assay: Time of effect in the face-to-face behavioral assay in the mouse when a dose of 28 micro mol/kg is administered subcutaneously; type: functional
[44] = test system: Mus musculus; assay: Time of effect in the face-to-face behavioral assay in the mouse when a dose of 8.4 micro mol/kg is administered subcutaneously; type: functional
[45] = test system: Mus musculus; assay: Antagonism of apomorphine in reserpinized mice when a dose of 0.3 micro mol/kg is administered intraperitoneally; type: functional
[46] = test system: Mus musculus; assay: Antagonism of apomorphine in reserpinized mice when a dose of 2.7 micro mol/kg is administered intraperitoneally; type: functional
[47] = test system: Mus musculus; assay: Antagonism of apomorphine for 10-20 minutes in reserpinized mice when a dose of 2.7 micro mol/kg is administered intraperitoneally; type: functional
[48] = test system: Mus musculus; assay: Antagonism of apomorphine for 0-10 minutes in reserpinized mice when a dose of 2.7 micro mol/kg is administered intraperitoneally; type: functional
[49] = test system: Mus musculus; assay: Antagonism of apomorphine for 0-10 minutes in reserpinized mice when a dose of 0.3 micro mol/kg is administered intraperitoneally; type: functional
[50] = test system: Mus musculus; assay: Ability to stimulate dopaminergic systems by effect on locomotor activity in reserpinized mice when a dose of 0.3 micro mol/kg is administered intraperitoneally; type: functional
[51] = test system: Mus musculus; assay: Ability to stimulate dopaminergic systems by effect on locomotor activity in reserpinized mice when a dose of 2.7 micro mol/kg is administered intraperitoneally; type: functional
[52] = test system: Rattus norvegicus; assay: Effect on the synthesis rates of serotonin in the rat ventral limbic brain region 2.7 micro mol/kg.; type: functional, Limbic system
[53] = test system: Rattus norvegicus; assay: Effect on the synthesis rates of dopamine in the rat ventral limbic brain region at 2.7 micro mol/kg.; type: functional, Limbic system
[54] = test system: Mus musculus; assay: Antagonism of apomorphine for 10-20 minutes in reserpinized mice when a dose of 0.3 micro mol/kg is administered intraperitoneally; type: functional

Chain of Sodium-dependent dopamine transporter (Rattus norvegicus) (P23977 whole entry): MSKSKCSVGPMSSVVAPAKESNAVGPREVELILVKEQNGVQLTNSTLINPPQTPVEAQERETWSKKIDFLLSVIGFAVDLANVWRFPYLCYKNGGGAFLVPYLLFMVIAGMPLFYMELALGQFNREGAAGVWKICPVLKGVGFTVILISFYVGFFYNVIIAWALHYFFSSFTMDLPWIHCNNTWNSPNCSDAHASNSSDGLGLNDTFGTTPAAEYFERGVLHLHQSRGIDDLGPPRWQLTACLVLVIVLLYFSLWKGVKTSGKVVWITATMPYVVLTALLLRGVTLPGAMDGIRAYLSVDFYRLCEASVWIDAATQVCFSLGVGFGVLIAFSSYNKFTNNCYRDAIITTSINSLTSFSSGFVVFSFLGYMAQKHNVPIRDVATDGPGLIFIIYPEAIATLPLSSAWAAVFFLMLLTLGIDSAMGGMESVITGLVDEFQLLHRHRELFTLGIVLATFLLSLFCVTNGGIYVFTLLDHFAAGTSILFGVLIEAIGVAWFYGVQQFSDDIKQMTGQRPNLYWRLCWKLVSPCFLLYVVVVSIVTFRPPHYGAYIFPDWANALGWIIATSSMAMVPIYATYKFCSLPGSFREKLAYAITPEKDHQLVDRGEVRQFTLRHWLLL
Chain of D(2) dopamine receptor (Rattus norvegicus, UniProt P61169) (P61169 whole entry): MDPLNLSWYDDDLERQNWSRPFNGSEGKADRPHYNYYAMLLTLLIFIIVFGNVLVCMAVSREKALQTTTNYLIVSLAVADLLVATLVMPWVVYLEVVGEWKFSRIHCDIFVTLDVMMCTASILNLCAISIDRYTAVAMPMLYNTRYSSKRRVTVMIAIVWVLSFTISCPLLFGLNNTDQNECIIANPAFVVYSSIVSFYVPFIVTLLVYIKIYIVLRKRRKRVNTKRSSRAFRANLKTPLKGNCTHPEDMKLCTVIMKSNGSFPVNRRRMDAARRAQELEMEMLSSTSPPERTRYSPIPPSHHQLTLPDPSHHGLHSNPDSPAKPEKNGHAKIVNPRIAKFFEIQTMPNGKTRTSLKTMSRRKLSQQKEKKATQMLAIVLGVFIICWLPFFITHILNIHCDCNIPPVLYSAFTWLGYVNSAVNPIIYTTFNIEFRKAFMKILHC
Chain of D(2) dopamine receptor (Homo sapiens, UniProt P14416) (P14416 whole entry): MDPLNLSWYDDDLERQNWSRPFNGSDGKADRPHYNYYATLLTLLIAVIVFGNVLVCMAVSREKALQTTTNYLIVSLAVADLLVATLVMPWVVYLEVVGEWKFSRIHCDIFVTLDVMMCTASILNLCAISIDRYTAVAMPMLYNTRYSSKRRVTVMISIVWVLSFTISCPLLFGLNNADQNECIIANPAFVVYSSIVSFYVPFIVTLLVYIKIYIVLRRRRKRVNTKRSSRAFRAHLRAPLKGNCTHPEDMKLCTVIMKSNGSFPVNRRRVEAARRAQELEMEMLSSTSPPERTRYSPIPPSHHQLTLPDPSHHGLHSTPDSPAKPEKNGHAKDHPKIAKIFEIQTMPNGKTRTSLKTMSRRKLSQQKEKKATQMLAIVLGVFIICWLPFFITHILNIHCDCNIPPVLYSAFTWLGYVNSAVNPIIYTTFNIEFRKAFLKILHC

CCCN1CC[C@@H]2Cc3c(cccc3OC)C[C@H]21 (racemic)
Ki [1]: 100 nM
Ki [2]: 877 nM
ED50 ([3]; Mus musculus, read-out: ED50): 0.4 µmol/kg
ED50 [4]: > 355 µmol/kg
Time [5]: 9 s
Time [6]: 134 s
Time [7]: 268 s
Max temperature decrease [8]: 6.7
Max temperature decrease [9]: 1.4
Time [10]: 384 s
Time [11]: 450 s
Time [12]: 6 s
Control [13]: -39%
Control [14]: -29%
ED50 [15]: 0.66 µmol/kg
ED50 [16]: 0.07 µmol/kg
Locomotor activity [17]: 1168
Locomotor activity [18]: 561
Locomotor activity [19]: 251
Locomotor activity [20]: 148
Locomotor activity [21]: 129
Locomotor activity [22]: 61

CCCN(CCC)C1CCc2cccc(O)c2C1 (stereo unspecified) [8-OH-DPAT]
ED50 [23]: 2.25 µmol/kg
ED50 [24]: 0.005 µmol/kg
ED50 [3]: 1 µmol/kg
ED50 [4]: 9.7 µmol/kg
Time [25]: 1.1 s
Time [26]: 1.6 s
Time [27]: 5 s
Time [28]: 4.4 s
Time [29]: 20 s
Time [30]: 310 s
Max temperature decrease [8]: 7.2
Max temperature decrease [9]: 7.5
Time [31]: 351 s
Time [32]: 11 s
Time [33]: 437 s
Control [34]: 16%
Control [35]: -37%
Control [36]: -47%
Control [37]: 3%
BP [38]: 66%
Control [39]: 57%
Control [40]: 2%
ED50 [41]: 0.03 µmol/kg

CN(C)CCCN1c2ccccc2Sc2ccc(Cl)cc21.Cl [CHLORPROMAZINE HYDROCHLORIDE]
Time [25]: 3.6 s
Time [42]: 5.8 s
Time [43]: 0 s
Time [44]: 1.3 s

O=C(CCCN1CCC(O)(c2ccc(Cl)cc2)CC1)c1ccc(F)cc1 [HALOPERIDOL]
Locomotor activity [45]: 58
Locomotor activity [46]: 10
Locomotor activity [47]: 28
Locomotor activity [48]: 72
Locomotor activity [49]: 94
Locomotor activity [50]: 9
Locomotor activity [51]: 1
Control [52]: -6.6%
Control [53]: 144%
ED50 [15]: 0.018 µmol/kg
ED50 [16]: 0.019 µmol/kg
Locomotor activity [54]: 71
